In patent publication US12233070B2, “Methods for treating benzodiazepine misuse/use disorder” (University of M[…] Center, priority 2020, dated 2025):
Entries after “also recorded” stand apart in the source; their conditions may differ. Marks after values point to notes of the source that are not given here.

Columns and labels:
rhesus monkeys [1] = experiment: Observation/sedation, focal animal behavioral scoring; assay type: in vivo, rhesus monkey; conditions: at least one dose significantly different from vehicle; out of 22 behaviors; i.v.; N = 4 monkeys
Procedure: For the data shown here, the behavior of each monkey (n=4 total) was scored using a focal animal approach as described previously (Duke et al. 2018, J Pharmacol Exp Ther 366: 145-57). Briefly, a trained observer blind to the drug treatments observed a specific monkey for 5 min and recorded each instance that a particular behavior occurred during 15-s intervals. Scores for each behavior were calculated as the number of 15-s bins in which the behavior occurred (e.g., a maximum score would be 20). For sedation measures, structured exposure to stimuli were included in the observation sessions (Duke et al., 2018). […] Specifically, the observer presented three stimuli: 1) walked at a normal pace towards the cage, 2) spoke the animal's name, and 3) moved the lock used to secure the door of the cage. […] If the monkey attended more slowly (i.e., >3 s following stimuli), the observer scored “moderate sedation”.
The assessment of sedation was initiated during the 5-min sampling period if the animal presented, at any time during that period, with its eyes closed for longer than 3 s. The result of this assessment was recorded for each remaining 15-sec interval of the 60-sec epoch unless eyes opened. Afterwards, eyes closing again initiated the assessment. If eyes remained closed, then the assessment was repeated at the beginning of the next 60-sec epoch 15-sec interval. Therefore, the maximum score for sedation during a 5-min period was 20 (four possible scores for 4×15-sec intervals per min, 5 min total; i.e., 4 possible scores×5 min=20). The order in which animals were observed and the observer performing the scoring each day was randomized. Four observers participated in the scoring throughout the duration of the study; each observer underwent a minimum of 20 hours of training and met an inter-observer reliability criterion of ≥90% agreement with all other observers.
The five-min sampling periods were repeated at multiple times following i.v. injection of TPA023B or vehicle (minutes post injection): 5, 10, 20, 40, 80, 160, 320. Scores were cumulated across the time periods, resulting in a maximum possible cumulative score of 140. TPA023B was compared with alprazolam, and the results have been published by Duke et al. (2018).

Sprague-Dawley rats [2] = experiment: Pulmonary ventilation, whole body plethysmography; assay type: in vivo, rat; conditions: 3.0 mg/kg, i.p.; N=8 rats
Procedure: We first assessed the effects of TPA023B, in comparison with alprazolam, using whole body plethysmography (WBP; DSI systems). For these studies, adult male Sprague-Dawley rats (n=8) were habituated to the chambers for 30 min. The chamber was then filled with 21% oxygen, sealed, and pressure fluctuation measured for 1 min. Next, the chamber was opened and the rats were injected with alprazolam or TPA023B, i.p., and placed into the sealed chamber for a 15 min pretreatment time. The chamber was again filled with 21% oxygen, and for 1 min, fluctuating pressure amounts were recorded to obtain tidal volume (lung capacity), breaths/minute, and minute volume (lung capacity per unit time).

rhesus monkeys [3] = experiment: Conflict model of anxiolysis (mult FR, FR+PUN); assay type: in vivo, rhesus monkey; conditions: i.v.; for Non-Suppressed, Mean responses/s (SEM) / Suppressed, Mean responses/s (SEM): N = 4 monkeys
From the text: The conflict procedure methodology includes a two-component multiple fixed-ratio, fixed-ratio plus punishment schedule (mult FR, FR+PUN). An important feature of this model is that it is highly predictive of clinically active doses in human subjects (Rowlett et al. 2006, Psychopharmacology 184: 201-11). One component of this schedule was associated with a distinctive visual stimulus (e.g., red light) and the other component was associated with a different stimulus (e.g., green light). In each component, completion of 10 responses (FR 10) produced a food pellet followed by a brief (10 sec) timeout period. The component ended following delivery of 5 food pellets or 5 min, whichever occurred first. A 10-min timeout period occurred before each of four cycles with two components (1 red, 1 green) per cycle. When performance in both components of the multiple schedule was stable, responding in one component was suppressed by superimposing a FR schedule of response-produced electric shock. Under the superimposed schedule, every nth response (n=15-25, adjusted for each monkey depending on individual performance) produced shock. Once responding was stable (at least three sessions in which suppressed responding was less than 50% of non-suppressed responding, with no upward or downward trend in response rates in either component), investigational compounds were administered i.v. during the extended timeout periods using a cumulative dosing technique. This technique allowed determination of a four-point dose-response function in a single session.
Table 2 summarizes data for TPA023B in the conflict procedure (n=4 monkeys, 2 females and 2 males), with alprazolam as a positive control. Average responses when vehicle was administered was 2.2 in the non-suppressed component, decreased by ˜98% by shock presentation in the suppressed component (mean=0.05 responses). For non-suppressed responding, TPA023B had no effects on mean rates of responding or percent of control over a 100-fold dose range (0.01 to 1.0 mg/kg, i.v.). […] This effect was similar to that observed with 0.03 mg/kg, i.v., of alprazolam. A striking characteristic of TPA023B in this procedure is the lack of attenuation of rates of responding at higher doses.

rats = experiment: Blockade of diazepam suppression of responding (30 min pretreatment); assay type: in vivo, rat; conditions: ligand 3.0 mg/kg; diazepam 30 min pretreatment; FIG. 12A; N=5
Procedure: This profile is very similar to that of TPA023B despite the structural differences. […] For both compounds, we chose 3.0 mg/kg, i.p., in rats based on published literature or pilot studies in our laboratories.
FIGS. 12A and 12B illustrate the results of acute dependency testing using these compounds.

[4] = target: α2 subunit-containing GABAA receptors (Homo sapiens, UniProt P18507+P47869); parameters: key: act as partial positive modulators for particular subtype combinations; none: zero efficacy (i.e., antagonism) at other subtypes; conditions: cited from earlier work
[5] = target: α1 subunit-containing GABAA receptors (Homo sapiens, UniProt P14867+P18507); parameters: key to Subtype α1: act as partial positive modulators for particular subtype combinations; none: zero efficacy (i.e., antagonism) at other subtypes; conditions: cited from earlier work
[6] = target: α3 subunit-containing GABAA receptors (Homo sapiens, UniProt P18507+P34903); parameters: key: act as partial positive modulators for particular subtype combinations; none: zero efficacy (i.e., antagonism) at other subtypes; conditions: cited from earlier work
[7] = target: α5 subunit-containing GABAA receptors (Homo sapiens, UniProt P18507+P31644); parameters: key to Subtype α5: act as partial positive modulators for particular subtype combinations; none: zero efficacy (i.e., antagonism) at other subtypes; conditions: cited from earlier work
[8] = parameters: key to Pharmacokinetics: “poor” - low bioavailability and/or short half-life; “good” - potent with long half-life; conditions: in vivo; cited from earlier work
[9] = rhesus monkey; cited from earlier work
Sprague-Dawley rats [10] = experiment: Food-maintained responding (FR 10), ligand alone; conditions: for effect on rates of responding: diazepam 3.0 mg/kg
Sprague-Dawley rats [11] = experiment: Precipitated withdrawal/acute dependence: responding 60 min after diazepam bolus; assay type: in vivo, rat
Procedure: Acute dependence can occur after single exposures to the benzodiazepine chlordiazepoxide, but not to an α2/3GABAA selective ligand (Fischer et al. 2013, Psychopharmacology 227: 347-54). Here, the extent to which TPA023B can precipitate withdrawal in rats following a single, large bolus dose of diazepam was studied. […] Once rates of responding were stable, doses of diazepam, the non-selective benzodiazepine antagonist flumazenil, and TPA023B were administered prior to the session.

rhesus monkeys [12] = experiment: Midazolam self-administration (PR) after TPA023B pretreatment; assay type: in vivo, rhesus monkey; conditions: midazolam alone, PR procedure
Procedure: To test this, we have trained monkeys to self-administer the short-acting conventional benzodiazepine midazolam (0.056 mg/kg/injection, i.v.) in the PR procedure, as described above. During test sessions, we initially kept the training dose of midazolam constant, and administered i.v. pretreatments of TPA023B (0.003, 0.01, 0.03, 0.1, 0.3 mg/kg, of vehicle) immediately prior to the beginning of the session. A key consideration for any pharmacotherapy, as well as interpretation of blockade of reinforcing effects generally, is the extent to which the blockade is specific to the drug target and not a generalized suppression of behavior, e.g., due to sedative-motor effects inhibiting the ability of the monkey to press the lever. Another possible confounding factor that would potentially result in blockade of drug taking is general sickness or perceptual alterations. In particular, appetite suppression would represent an undesirable side effect in a benzodiazepine addiction pharmacotherapy.
To further evaluate the extent to which attenuation of responding was due to pharmacological antagonism and to evaluate an exemplary range of effective doses, we evaluated single doses of TPA023B administered prior to sessions in which differing doses of midazolam were tested.

Chain of α1 subunit-containing GABAA receptors (P14867 28-456): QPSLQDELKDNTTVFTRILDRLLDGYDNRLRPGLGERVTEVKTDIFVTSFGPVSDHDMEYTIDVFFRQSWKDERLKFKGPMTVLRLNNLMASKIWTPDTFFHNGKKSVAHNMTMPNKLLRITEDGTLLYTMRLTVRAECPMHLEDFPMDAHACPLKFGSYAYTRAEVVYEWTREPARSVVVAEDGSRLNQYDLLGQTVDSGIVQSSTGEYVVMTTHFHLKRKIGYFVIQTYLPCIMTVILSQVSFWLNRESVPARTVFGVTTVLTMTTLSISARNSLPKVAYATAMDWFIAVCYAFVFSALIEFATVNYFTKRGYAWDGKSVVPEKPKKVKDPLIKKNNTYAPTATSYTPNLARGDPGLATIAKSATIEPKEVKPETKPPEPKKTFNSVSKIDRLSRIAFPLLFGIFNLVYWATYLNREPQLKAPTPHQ
Chain of α1 subunit-containing GABAA receptors (P18507 40-475): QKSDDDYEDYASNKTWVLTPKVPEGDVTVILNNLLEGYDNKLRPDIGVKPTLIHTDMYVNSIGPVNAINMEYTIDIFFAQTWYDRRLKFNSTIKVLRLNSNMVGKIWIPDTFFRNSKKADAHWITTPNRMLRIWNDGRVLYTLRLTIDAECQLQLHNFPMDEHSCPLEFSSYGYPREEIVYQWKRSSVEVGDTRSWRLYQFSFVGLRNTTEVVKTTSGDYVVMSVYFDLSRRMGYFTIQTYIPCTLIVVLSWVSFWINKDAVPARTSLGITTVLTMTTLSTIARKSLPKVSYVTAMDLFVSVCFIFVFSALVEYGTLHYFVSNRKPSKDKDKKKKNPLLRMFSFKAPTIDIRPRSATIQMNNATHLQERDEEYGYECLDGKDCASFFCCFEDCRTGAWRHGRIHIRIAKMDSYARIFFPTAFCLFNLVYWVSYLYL
Chain of α1 subunit-containing GABAA receptors (P28472 26-473 partner): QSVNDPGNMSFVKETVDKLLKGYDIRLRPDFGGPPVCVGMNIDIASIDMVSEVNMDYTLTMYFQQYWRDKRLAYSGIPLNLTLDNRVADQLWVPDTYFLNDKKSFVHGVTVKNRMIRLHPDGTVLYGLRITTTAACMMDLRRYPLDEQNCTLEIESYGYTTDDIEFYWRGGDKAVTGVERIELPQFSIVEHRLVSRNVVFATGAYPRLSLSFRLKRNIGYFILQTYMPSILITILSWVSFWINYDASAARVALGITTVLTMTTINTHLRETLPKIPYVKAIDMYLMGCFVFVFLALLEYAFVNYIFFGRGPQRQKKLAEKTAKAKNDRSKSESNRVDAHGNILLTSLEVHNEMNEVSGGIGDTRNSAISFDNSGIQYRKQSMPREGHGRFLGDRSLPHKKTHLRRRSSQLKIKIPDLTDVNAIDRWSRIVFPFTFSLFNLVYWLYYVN
Chain of α3 subunit-containing GABAA receptors (P34903 29-492): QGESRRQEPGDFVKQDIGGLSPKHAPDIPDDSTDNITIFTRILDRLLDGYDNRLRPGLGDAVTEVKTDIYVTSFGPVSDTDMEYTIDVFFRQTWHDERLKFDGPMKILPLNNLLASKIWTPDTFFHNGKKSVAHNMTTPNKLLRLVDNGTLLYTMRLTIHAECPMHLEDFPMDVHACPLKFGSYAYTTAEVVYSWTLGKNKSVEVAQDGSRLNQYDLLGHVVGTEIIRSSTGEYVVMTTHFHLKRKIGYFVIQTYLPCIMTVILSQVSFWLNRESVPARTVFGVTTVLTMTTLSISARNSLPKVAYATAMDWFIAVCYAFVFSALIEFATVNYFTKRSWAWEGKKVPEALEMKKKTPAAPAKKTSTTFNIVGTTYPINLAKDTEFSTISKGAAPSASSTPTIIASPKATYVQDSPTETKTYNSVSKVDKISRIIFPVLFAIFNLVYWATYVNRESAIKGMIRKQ
Chain of α3 subunit-containing GABAA receptors (P18507 40-475): as the sequence (P18507 40-475) above
Chain of α3 subunit-containing GABAA receptors (P28472 26-473 partner): as the sequence (P28472 26-473 partner) above
Chain of α5 subunit-containing GABAA receptors (P31644 32-462): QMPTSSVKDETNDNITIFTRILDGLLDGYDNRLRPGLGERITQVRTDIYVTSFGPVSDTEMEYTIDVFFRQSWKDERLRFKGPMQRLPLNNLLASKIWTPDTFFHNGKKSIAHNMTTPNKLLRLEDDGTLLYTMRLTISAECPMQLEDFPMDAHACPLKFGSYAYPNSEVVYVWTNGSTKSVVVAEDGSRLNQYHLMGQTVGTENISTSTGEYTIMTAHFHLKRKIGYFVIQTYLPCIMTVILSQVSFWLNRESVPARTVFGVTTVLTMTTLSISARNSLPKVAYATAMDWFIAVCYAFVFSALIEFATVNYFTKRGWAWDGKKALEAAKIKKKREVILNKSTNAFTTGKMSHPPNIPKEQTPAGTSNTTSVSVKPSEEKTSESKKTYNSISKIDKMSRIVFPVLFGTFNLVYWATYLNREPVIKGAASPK
Chain of α5 subunit-containing GABAA receptors (P18507 40-475): as the sequence (P18507 40-475) above
Chain of α5 subunit-containing GABAA receptors (P28472 26-473 partner): as the sequence (P28472 26-473 partner) above
Chain of α2 subunit-containing GABAA receptors (P47869 29-451): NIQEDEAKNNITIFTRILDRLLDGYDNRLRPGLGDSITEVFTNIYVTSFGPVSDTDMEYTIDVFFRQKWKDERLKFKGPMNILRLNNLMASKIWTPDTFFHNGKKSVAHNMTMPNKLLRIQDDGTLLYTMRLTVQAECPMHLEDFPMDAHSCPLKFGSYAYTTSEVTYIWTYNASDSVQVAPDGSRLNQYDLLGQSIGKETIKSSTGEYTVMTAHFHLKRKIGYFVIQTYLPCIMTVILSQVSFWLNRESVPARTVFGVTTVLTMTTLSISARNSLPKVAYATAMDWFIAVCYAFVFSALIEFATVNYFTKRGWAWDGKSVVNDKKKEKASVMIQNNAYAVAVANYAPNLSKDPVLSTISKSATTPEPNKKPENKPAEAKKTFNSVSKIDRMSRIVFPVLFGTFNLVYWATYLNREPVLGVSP
Chain of α2 subunit-containing GABAA receptors (P18507 40-475): as the sequence (P18507 40-475) above
Chain of α2 subunit-containing GABAA receptors (P28472 26-473 partner): as the sequence (P28472 26-473 partner) above

Cc1nnc2n1-c1ccc(Cl)cc1C(c1ccccc1)=NC2 [Alprazolam, alprazolam]
Significant behavioral effects: Decrease (rhesus monkeys [1]): Exploration; also recorded: Passive Visual, Tactile/Oral | Significant behavioral effects: Increase (rhesus monkeys [1]): Sedation, Deep Sedation,; also recorded: Observable Ataxia; also recorded: Rest/Sleep Posture, Moderate | breathing frequency (Sprague-Dawley rats [2]): significantly reduced | minute volume (Sprague-Dawley rats [2]): significantly reduced | Non-Suppressed, Mean responses/s (SEM) (rhesus monkeys [3]; 0.03 mg/kg): 1.8 (0.31) responses/s | Suppressed, Mean responses/s (SEM) (rhesus monkeys [3]; 0.03 mg/kg): 1.9 (0.10)* responses/s | effect on non-suppressed responding (rhesus monkeys [3]; 0.3 mg/kg): markedly attenuated | Non-Suppressed, Mean responses/s (SEM) (rhesus monkeys [3]; 0.3 mg/kg): 0.18 (0.09)* responses/s | Suppressed, Mean responses/s (SEM) (rhesus monkeys [3]; 0.3 mg/kg): 0.10 (0.10) responses/s

Cn1ncnc1COc1nn2c(-c3cc(F)ccc3F)nnc2cc1C(C)(C)C [L-838,417]
ability of diazepam to suppress rates of responding (rats): blocked | Subtype α2 [4]: partial | Subtype α1 [5]: none | efficacy at α1GABAA subtype [5]: antagonist; also recorded: no efficacy | Subtype α3 [6]: partial | Subtype α5 [7]: partial | PK [8]: Poor | Pharmacokinetics [8]: poor

Cn1ncnc1COc1nn2c(-c3ccccc3)nnc2cc1C1CCC1 [MRK-067]
PK [8]: poor

Cn1ncnc1COc1nn2c(-c3ccccc3F)nnc2cc1C1CCC1 [MRK-696]
Subtype α2 [4]: partial | Subtype α1 [5]: partial | Subtype α3 [6]: partial | Subtype α5 [7]: partial | Pharmacokinetics [8]: poor

N#Cc1cc(F)ccc1-c1cc(-c2cnc3nc(C(F)(F)F)ccn23)ccc1F [MRK-898]
Subtype α2 [4]: partial | Subtype α1 [5]: none | efficacy at α1GABAA subtype [5]: antagonist | Subtype α3 [6]: partial | Subtype α5 [7]: none | efficacy at α5GABAA subtype [7]: antagonist | bioavailability [9]: 49% | half-life [9]: 13 h | Pharmacokinetics [8]: good

CN1C(=O)CN=C(c2ccccc2)c2cc(Cl)ccc21 [diazepam]
mean rates of responding (percent of baseline control), ligand alone (Sprague-Dawley rats [10]; N=8 rats, FIGS. 10A to 10C): significantly decreased | effect on rates of responding (Sprague-Dawley rats [10]; 30 min pre-treatment): most robust effects | effect on rates of responding (Sprague-Dawley rats [10]; 60 min pre-treatment): no effects

CCOC(=O)c1ncn2c1CN(C)C(=O)c1cc(F)ccc1-2 [flumazenil, reference compound]
ability of diazepam to suppress rates of responding (rats): blocked | rates of responding 60 min after 3.0 mg/kg diazepam (precipitated withdrawal) (Sprague-Dawley rats [11]; all doses tested, vs ligand alone, FIGS. 11A and 11B): robustly suppressed responding | rates of responding after 60-min pretreatment of diazepam (acute dependence) (Sprague-Dawley rats [11]; ligand 3.0 mg/kg, FIG. 12B, N=5): significant decrease

Cc1ncc2n1-c1ccc(Cl)cc1C(c1ccccc1F)=NC2 [midazolam, reference compound]
dose showing maximal self-administration (rhesus monkeys [12]): 0.018 mg/kg/injection

MRK-409
Subtype α2 [4]: partial | Subtype α1 [5]: partial | Subtype α3 [6]: partial | Subtype α5 [7]: partial | Pharmacokinetics [8]: good
